Assays:
[1] = system: panel of human cancer cell lines; conditions: reported previously; cited from earlier work
NF-κB (p65) = NF-κB (p65) (Homo sapiens, UniProt Q04206); assay: Enzyme-based ELISA NF-κB p65 inhibition assay; format: biochemical; conditions: for NF-κB (p65) inhibitory activity (result in words): inactive = IC50 > 10 µM; for IC50: read-out: NF-κB p65 inhibition IC50, ELISA, rocaglamide positive control
[2] = system: HT-29 human colon cancer cell line

NF-κB (p65), sequence (Q04206 whole entry): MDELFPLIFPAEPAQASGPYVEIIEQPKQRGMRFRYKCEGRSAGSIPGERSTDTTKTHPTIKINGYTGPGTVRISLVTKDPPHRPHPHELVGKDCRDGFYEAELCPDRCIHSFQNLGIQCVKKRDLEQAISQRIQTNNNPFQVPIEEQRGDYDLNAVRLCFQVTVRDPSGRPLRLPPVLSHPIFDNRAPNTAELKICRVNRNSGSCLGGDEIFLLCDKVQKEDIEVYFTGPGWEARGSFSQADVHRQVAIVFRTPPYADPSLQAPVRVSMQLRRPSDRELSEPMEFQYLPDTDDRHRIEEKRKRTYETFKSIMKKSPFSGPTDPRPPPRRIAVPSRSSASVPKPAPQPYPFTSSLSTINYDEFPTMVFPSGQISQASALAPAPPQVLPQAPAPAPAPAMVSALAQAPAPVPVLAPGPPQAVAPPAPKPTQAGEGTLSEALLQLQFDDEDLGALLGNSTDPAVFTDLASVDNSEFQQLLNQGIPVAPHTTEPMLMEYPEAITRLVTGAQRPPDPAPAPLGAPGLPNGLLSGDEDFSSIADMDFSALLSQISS

Compound | Cytotoxicity toward a panel of human cancer cell lines (result in words) [1] | NF-κB (p65) inhibitory activity (result in words) (NF-κB (p65)) | IC50 (NF-κB (p65)) [µM] | IC50 [2] [µM]
C=C1C(=O)O[C@@H]2/C=C(/C)C3=CC(=O)[C@@](C)(C[C@H](OC(=O)/C(C)=C\C)[C@@H]12)O3 [Compound 12, lychnopholide] | exhibit cytotoxicity | active | 2.9 | –
C=C1C(=O)O[C@@H]2C[C@@H](C)/C=C\C(=O)[C@](C)(OC(C)=O)C[C@H](OC(=O)/C(C)=C\C)[C@@H]12 [Compound 7, ereglomerulide] | – | – | > 10 | –
C=C1C(=O)OC2CC(C)C(OC)CC(=O)C(C)(OC(C)=O)CC(OC(=O)C(C)=CC)C12 [Compound 5, (3R,4R,6R,7S,8S,10R)-1-oxo-3-methoxy-8-angeloyloxy-10-acetoxygermacra-11(13)-en-6,12-olide] | – | active | 2.1 | –
4,5-dihydrolychnopholide [Compound 13] | – | – | > 10 | –
C=C1C(=O)OC2CC(C)CCC(=O)C(C)(OC(C)=O)CC(OC(=O)C(C)=CC)C12 [Compound 3, (4S,6R,7S,8S,10R)-1-oxo-8-angeloyloxy-10-acetoxygermacra-11(13)-en-6,12-olide] | – | – | > 10 | 3
C=C1C(=O)OC2CC(C)C(OC)CC(=O)C(C)(O)CC(OC(=O)C(C)=CC)C12 [Compound 6, (3R,4R,6R,7S,8S,10R)-1-oxo-3-methoxy-8-angeloyloxy-10-hydroxygermacra-11(13)-en-6,12-olide] | – | – | > 10 | –
C=C1C(=O)O[C@H]2[C@H]1CC/C(C)=C/CC[C@@]1(C)O[C@@H]21 [parthenolide, reference compound] | exhibit cytotoxicity | – | – | –
15-deoxygoyazensolide [Compound 10] | – | active | 3.2 | 0.26
C=C(C)C(=O)O[C@H]1C[C@@]2(C)OC(=CC2=O)/C(CO)=C\[C@H]2OC(=O)C(=C)[C@H]12 [Compound 8, goyazensolide] | exhibit cytotoxicity | active | 3.8 | –
C=C1C(=O)O[C@@H]2C/C(C)=C\CC(=O)[C@](C)(OC(C)=O)C[C@H](OC(=O)/C(C)=C\C)[C@@H]12 [Compound 4, (6R,7S,8S,10R)-1-oxo-8-angeloyloxy-10-acetoxygermacra-3(4),11(13)-dien-6,12-olide] | – | – | > 10 | –

From PMC3369275 (Tetrahedron, 2012)
